Measured values from US20120136050A1, “USE OF A MELATONIN AGONIST FOR THE TREATMENT OF SLEEP DISORDERS INCLUDING PRIMARY INSOMNIA” (VANDA PHARMACEUTICALS INC., priority 2009, published 2012).
Entries after “also recorded” stand apart in the source; their conditions may differ.

What was measured:
[1] = system: healthy volunteers, 5 hour advance in bedtime; experiment: Example 1: placebo-controlled clinical trial, 5 hour advance in bedtime (DLMO, PSG); assay type: in vivo, human
Procedure: A clinical trial was conducted to assess the safety of Compound A as well as to determine the ability of Compound A to shift the sleep/wake cycle following a 5 hour advance in bedtime. The study was a randomized, double-blind, parallel group, placebo-controlled study. It consisted of a 2-4 week outpatient screening period followed by an 8-day inpatient stay. After acclimating to the sleep lab, bedtime was advanced by 5 hours. The primary objectives of this study were to investigate the exposure-response to Compound A on advancement of circadian release of endogenous melatonin rhythm as measured by dim light melatonin onset (DLMO, a biomarker of the sleep-wake cycle), to investigate the exposure-response to Compound A on mean sleep efficiency parameters as measured by PSG, to investigate the exposure-response to Compound A on objective neurobehavioral performance lapses during scheduled work-time as measured by computerized continuous performance testing, and to assess the safety and tolerability of Compound A. Forty-five healthy volunteers, men and women aged 18-50, were enrolled into this study. Thirty-nine subjects were randomized.
The study was designed to assess the safety and efficacy of four oral doses of Compound A (10 mg, 20 mg, 50 mg and 100 mg) compared to matching placebo on circadian phase shift, sleep parameters during the major sleep episode, and subject alertness. After written informed consent was signed, subjects that met the inclusion/exclusion criteria at screening and baseline were enrolled into the 8-day in-patient portion of the study. All in-patient assessments were conducted in a time-isolation sleep lab in which no time cues were available to subjects. During the first three nights, subjects were given placebo 30 minutes prior to bedtime (11:00 PM) in a single-blind fashion. Baseline assessments for the efficacy parameters were measured during this period. At 5:00 PM on day 3, subjects started a 19 hour pre-constant posture (CP) segment during which time the subjects remained seated in a semi-recumbent position and blood samples were collected approximately every hour from 7:00 AM to 12:00 PM. The purpose of the pre-CP segment is to provide a measure of each subject's circadian phase before the start of the night shift segment. On day 4, subjects were randomized to once daily treatment in one of the five treatment groups. In addition, subject sleep-wake routines were advanced 5 hours, such that subjects were required to sleep from approximately 6:00 PM-2:00 AM. Treatment was administered and the time shift was maintained for 3 days. Efficacy parameters were collected during this time. To measure circadian phase at the end of the study, a 24-hour post-CP was conducted immediately after the treatment segment on day 7. Over the course of the study, approximately 500 mL of blood was drawn from each subject. Safety was assessed throughout the study, at the end of study (EOS) visit on day 8, and at the Follow-up visit. The target number of subjects for enrollment was 40 but 45 were actually enrolled.
To assess circadian sleep-wake cycles in the study, plasma melatonin levels were assessed. The onset of melatonin production, or dim light melatonin onset (DLMO), is associated with onset of sleep. DLMO is considered a standard marker used frequently to assess circadian phase. To assess the effects of Compound A on the sleep-wake cycles, DLMO was monitored in subjects before and after treatment. For this study, DLMO was defined as the time when melatonin production reaches 25% of the nightly peak (MEL25% up) of the fitted melatonin phase curve.
Because light has a significant confounding effect on melatonin release, light levels in the sleep laboratory were carefully regulated. […]

healthy volunteers = experiment: Previous Phase I single and multiple ascending dose studies, safety and tolerability; assay type: in vivo
Procedure: (§1) A 28-day Phase II study was also conducted to investigate the effects of Compound A in elderly patients with primary insomnia. […] While patients with the lowest melatonin levels ([…]) may have benefited from Compound A treatment more than placebo, the design of this study made it difficult to interpret the effects of Compound A on the sleep-wake cycle.
The oral doses selected were based on safety and efficacy data obtained from previous Compound A pre-clinical and clinical trials. […] Though not optimally designed to assess the chronobiotic potential of Compound A, clinical trial CN116-002 measured the effects Compound A on the circadian sleep-wake cycle. […] The doses selected for the study (10 mg, 20 mg, 50 mg, and 100 mg) were within the expected dose range for efficacy. The safety of the selected doses for this study is supported by previous clinical studies. […] The highest dose in the study, 100 mg, is well within the safety margin established in both Phase I single and multiple ascending dose trials and in a Phase II study.

[2] = system: elderly patients with primary insomnia; experiment: 28-day Phase II study in elderly patients with primary insomnia; assay type: in vivo, human
Procedure: as §1

[3] = Plasma exposure after oral administration (Cmax, AUC); assay type: in vivo, human
[4] = Solubility in solvents and water; assay type: physicochemical

Q: For `CCC(=O)NC[C@@H]1C[C@H]1c1cccc2c1CCO2` [Compound A, N-[[(1R,2R)-2-(2,3-dihydro-1-benzofuran-4-yl)cycloproply]methyl]propanamide], which “Change in DLMO25%,LOQ5 between Night 4 and Night 3” value ([1]; 10 mg, N = 8) is on record?
A: 0.18 h

Q: What about the “Change in WASO (fraction of time awake from persistent sleep to lights on) between Night 4 and Night 2” value ([1]; 10 mg, N = 8) of the same molecule?
A: 8.37 % points

Q: And the “Change in WASO between Night 4 and Night 2” value ([1]; 10 mg, N = 8)?
A: 40.56 min

Q: And the “Mean Change in Sleep Efficiency between Night 4 and Night 2, Full Night” value (shortened to “Mean Change … Full Night”) ([1]; 10 mg, N = 8)?
A: −7.77 % points

Q: What about the “Change in Latency to Persistent Sleep between Night 4 and Night 2” value (“Change in Latency” below) ([1]; 10 mg, N = 8, mean ± SD, p 0.0034 vs placebo) of the same molecule?
A: -8.25 ± 16.34 min

Q: What about the “Mean Change in Sleep Efficiency between Night 4 and Night 2, 2nd Third of the Night” value (“Mean Change … of the Night” below) ([1]; 10 mg, N = 8, mean ± SD, p 0.0303 vs placebo) of the same molecule?
A: −12.64 ± 13.83 % points

Q: What about the “Change in DLMO25%,LOQ5 between Night 4 and Night 3” value ([1]; 20 mg, N = 7) of the same molecule?
A: -1.14 h

Q: And the “Change in Latency” value ([1]; 20 mg, N = 8)?
A: 5.00 min

Q: What about the “Change in WASO (fraction of time awake from persistent sleep to lights on) between Night 4 and Night 2” value ([1]; 20 mg, N = 8) of the same molecule?
A: 6.91 % points

Q: And the “Change in WASO between Night 4 and Night 2” value ([1]; 20 mg, N = 8)?
A: 31.19 min

Q: What about the “Mean Change … Full Night” value ([1]; 20 mg, N = 8) of the same molecule?
A: −6.68 % points

Q: What about the “Mean Change … of the Night” value ([1]; 20 mg, N = 8, mean ± SD, p 0.0048 vs placebo) of the same molecule?
A: −5.11 ± 12.78 % points

Q: What about the “Change in DLMO25%,LOQ5 between Night 4 and Night 3” value ([1]; 50 mg, N = 4) of the same molecule?
A: -0.50 h

Q: What about the “Change in WASO (fraction of time awake from persistent sleep to lights on) between Night 4 and Night 2” value ([1]; 50 mg, N = 7) of the same molecule?
A: 6.61 % points

Q: And the “Change in WASO between Night 4 and Night 2” value ([1]; 50 mg, N = 7)?
A: 31.21 min

Q: What about the “Mean Change … of the Night” value ([1]; 50 mg, N = 7, mean ± SD, p 0.0028 vs placebo) of the same molecule?
A: −2.10 ± 4.14 % points

Q: And the “Change in Latency” value ([1]; 50 mg, N = 7, mean ± SD, p 0.0193 vs placebo)?
A: -3.71 ± 10.97 min

Q: And the “Mean Change … Full Night” value ([1]; 50 mg, N = 7, mean ± SD, p 0.0487 vs placebo)?
A: −5.87 ± 9.89 % points

Q: What about the “Change in DLMO25%,LOQ5 between Night 4 and Night 3” value ([1]; 100 mg, N = 5, mean ± SD, p 0.0276 vs placebo) of the same molecule?
A: -2.74 ± 1.95 h

Q: What about the “Change in Latency” value ([1]; 100 mg, N = 6, mean ± SD, p 0.0214 vs placebo) of the same molecule?
A: -4.17 ± 6.93 min

Q: What about the “Mean Change … of the Night” value ([1]; 100 mg, N = 7, mean ± SD, p 0.0030 vs placebo) of the same molecule?
A: −2.30 ± 5.72 % points

Q: And the “Mean Change … Full Night” value ([1]; 100 mg, N = 7, mean ± SD, p 0.0141 vs placebo)?
A: −2.02 ± 4.94 % points

Q: What about the “Change in WASO (fraction of time awake from persistent sleep to lights on) between Night 4 and Night 2” value ([1]; 100 mg, N = 7, mean ± SD, p 0.0391 vs placebo) of the same molecule?
A: 1.85 ± 4.29 % points

Q: What about the “Change in WASO between Night 4 and Night 2” value ([1]; 100 mg, N = 7, mean ± SD, p 0.0452 vs placebo) of the same molecule?
A: 8.50 ± 20.39 min

Q: And the “number of episodes of REM during the final third of the night” value ([1]; Night 4, after phase advance)?
A: dose-related increase

Q: And the “percentage of time in each sleep stage” value ([1]; between Night 4 and Night 2)?
A: did not change

Q: And the tolerability ([1]; doses of 10, 20, 50, and 100 mg, conclusion from Examples 1 and 2)?
A: well-tolerated

Q: What about the “lowest effective dose for DLMO shift” value ([1]; first dose with statistically significant p-value in ANOVA with contrasts) of the same molecule?
A: 100 mg

Q: And the “safety and tolerability, multiple doses” value (healthy volunteers; doses up to 150 mg daily for 28 days, healthy subjects (b53 also elderly subjects with chronic insomnia))?
A: well-tolerated; also recorded: safety and tolerability of Compound A at doses up to 150 mg has been demonstrated

Q: What about the “safety and tolerability, single dose” value (healthy volunteers; healthy subjects, single oral dose of 1 mg to 300 mg) of the same molecule?
A: safe and well tolerated

Q: And the “number of nocturnal awakenings versus placebo” value [2]?
A: did not differentiate from placebo

Q: What about the “sleep latency versus placebo” value [2] of the same molecule?
A: did not differentiate from placebo

Q: And the “effect of covariates on exposure levels” value ([3]; age, weight, height, gender, creatinine clearance, or ALT baseline levels)?
A: not affected

Q: And the “AUC increase with dose” value ([3]; oral doses 10 to 100 mg)?
A: approximately proportional to dose

Q: What about the “Cmax increase with dose” value ([3]; oral doses 10 to 100 mg) of the same molecule?
A: approximately proportional to the dose

Q: And the “dependence of aqueous solubility on pH” value [4]?
A: practically unaffected by pH

Q: And the “solubility in organic solvents” value ([4]; 95% ethanol, methanol, acetonitrile, ethyl acetate, isopropanol, polyethylene glycols (PEG-300 and PEG-400))?
A: very soluble or freely soluble

Q: What about the “native pH of a saturated solution in water” value ([4]; saturated solution in water) of the same molecule?
A: 8.5

Q: And the solubility in water ([4]; water)?
A: only slightly soluble
